Consider five molecules from ChEMBL document CHEMBL1777709, “Asymmetric synthesis and biological evaluations of (+)- and (-)-6-dimethoxymethyl-1,4-dihydropyridine-3-carboxylic acid derivatives blocking N-type calcium channels” (Bioorg Med Chem Lett, 2011).

One test has as its system Rattus norvegicus. Briefly: Ratio of inhibition of L-type calcium channel to inhibition of N-type calcium channel in rat hypertension model at 3 ug/ml, iv. It is filed as functional.
A short description of test [1]: Inhibition of Voltage-dependent N-type calcium channel- mediated calcium influx in human IMR-32 cells. It is filed as cell-based.
Test [2] deals with Voltage-gated L-type calcium channel (Rattus norvegicus, UniProt P22002+Q02485+P27732). Briefly: Inhibition of Voltage-dependent L-type calcium channel in rat thoracic aorta ring. It is filed as tissue-based.

In the case of `COCCOC(=O)C1=C(C)NC(C)=C(C(=O)OC/C=C/c2ccccc2)C1c1cccc([N+](=O)[O-])c1` (configuration not stated) [CILNIDIPINE], the Ratio in the test on Rattus norvegicus came out at 1. Moreover, in test [1] (Homo sapiens, IMR-32), the IC50 (usually the midpoint of a concentration-inhibition curve) is 1.6 µM.
As to `CC1=C(C(=O)O)C(c2cccc([N+](=O)[O-])c2)C(C(=O)OC/C=C/c2ccccc2)=C(C)N1` (racemic), in test [1] (Homo sapiens, IMR-32), the IC50 stood at 3.5 µM.
`COC(OC)C1=C(C(=O)OC/C=C/c2ccccc2)C(c2cccc(Cl)c2)C(C(=O)O)=C(C)N1` (racemic): the IC50 in test [1] (Homo sapiens, IMR-32) is 3 µM.
For `COC(OC)C1=C(C(=O)OC/C=C/c2ccccc2)C(c2cccc(Cl)c2)C(C(=O)O)=C(C)N1` (single isomer, unassigned; (+)), the IC50 in test [2] came out at 13.2 µM; in test [1] (imr-32), 2.6 µM.
As for `COC(OC)C1=C(C(=O)OC/C=C/c2ccccc2)C(c2cccc(Cl)c2)C(C(=O)O)=C(C)N1` (stereo in doubt; (-)-3), in test [2], the IC50 came to 1.8 µM.
